What was measured:
[1] = tested on: subjects with pain following bunionectomy; assay: Randomized, double-blind, placebo-controlled study of efficacy and safety in subjects with pain following bunionectomy; conditions: for Mean SPID48: oral, NPRS 0-48 h
Text: Bunionectomy is a well-established, multi-dose, surgical, acute pain model. A randomized, double-blind study design was used to avoid observer bias and reduce symptoms or outcomes arising from the subjects' knowledge of treatment.
Male and female patients between the ages of 18 and 75 years (inclusive) with pain that is ≥4 on an 11-point Numeric Pain Rating Scale (NPRS) and is moderate or severe on the Verbal Categorical Rating Scale (VRS) after bunionectomy are included in the study.
The investigational drug was administered orally in 10 mg tablets. […] The investigational drug was administered every 12 hours (q12 h). A low, mid, and high dosing regime were tested. The first dose in the low dosing regime was 20 mg, and the subsequent doses were 10 mg g12 h. The first dose in the mid dosing regime was 60 mg, and the subsequent doses were 30 mg g12 h. The first dose in the high dosing regime was 100 mg, and the subsequent doses were 50 mg g12 h.
After a screening period, subjects receive a primary unilateral first metatarsal bunionectomy repair on Day minus one under regional anesthesia (Mayo and popliteal block). A continuous popliteal sciatic block infusion (0.2% ropivacaine) is started after surgery, and remains in place until approximately 3 AM on Day 1. After removal of the popliteal sciatic block, each subject is randomized when the subject requests the first dose of study drug for pain relief and reports pain ≥4 on the NPRS and moderate or severe pain on the VRS.
Randomization was stratified by site and baseline NPRS (<8 versus ≥8). To maintain the blind, all subjects receive the same number of capsules in a double-dummy design.
HB/APAP placebo capsules were administered every 6 hours (q6 h).
The final dose of HB/APAP was given 42 hours after the first dose.
11-point (0 to 10) Numeric Pain Rating Scale: NPRS scores are frequently used in bunionectomy studies and are recognized by the FDA as a valid pain intensity measure. On the 11-point NPRS, a score of 0 denotes no pain, and a score of 10 denotes the worst pain intensity imaginable. Subjects reported their pain on the 11-point NPRS immediately before their first dose of the study drug (baseline NPRS score) and at intervals over 48 hour period (i.e. 0.5, 1, 1.5, 2, 3, 4, 5, 6, 8, 12, 16, 20, 24, 28, 32, 36, 40, 44, and 48 hours (±5 minutes)) after the first dose of the study drug. Pain intensity is also recorded on the NPRS immediately before each administration of rescue medication. Pain intensity scores that are collected within 4 hours after a dose of rescue medication are deemed missing, and the missing values are imputed as the intensity recorded immediately before the administration of rescue medication.
SPID-48 is the sum of the pain intensity difference (PID) over the 48 hour time period. A pain intensity score of 0 (no pain) to 10 (worse possible pain) is obtained before starting the study and throughout the 48 time period. The pain score at each assessment time is subtracted from the baseline pain score to provide the total sum score or SPID-48. A higher SPID-48 is better and indicates a reduction in pain intensity compared to the baseline score.
4-point Verbal Categorical Rating Scale: Subjects report their pain on the 4-point VRS (none, mild, moderate, or severe) immediately before their first dose of the study drug (baseline VRS).
Safety evaluations include adverse events, clinical laboratory assessments, clinical evaluation of vital signs, electrocardiograms, and physical examinations.

[2] = target: human NaV 1.8 (Homo sapiens, UniProt Q9Y5Y9); assay: E-VIPR assay detecting and measuring NaV inhibition properties; type: cell-based; conditions: HEK cells expressing a truncated form of human NaV 1.8; E-VIPR membrane potential readout
Text: Sodium ion channels are voltage-dependent proteins that can be activated by inducing membrane voltage changes by applying electric fields. The electrical stimulation instrument and methods of use, referred to as E-VIPR, are described in International Publication No. WO 2002/008748 A3 and C.-J. Huang et al. Characterization of voltage-gated sodium channel blockers by electrical stimulation and fluorescence detection of membrane potential, 24 Nature Biotech. 439-46 (2006), both of which are incorporated by reference in their entirety. The instrument comprises a microtiter plate handler, an optical system for exciting the coumarin dye while simultaneously recording the coumarin and oxonol emissions, a waveform generator, a current- or voltage-controlled amplifier, and parallel electrode pairs that are inserted into assay plate wells. […]
5 mM DiSBAC6(3), a voltage sensitive oxonol acceptor (CAS number 169211-44-3; 5-[3-(1,3-dihexylhexahydro-4,6-dioxo-2-thioxo-5-pyrimidinyl)-2-propen-1-ylidene]-1,3-dihexyldihydro-2-thioxo-4,6(1H,5H)-pyrimidinedione), in dry DMSO. The preparation of DiSBAC6(3) is analogous to that of DiSBAC4(3) as described in Voltage Sensing by Fluorescence Resonance Energy Transfer in Single Cells, Gonzalez, J. E. and Tsien, R. Y. (1995) Biophys. […]

[3] = tested on: patients undergoing abdominoplasty; assay: Study in patients undergoing abdominoplasty (NCT05034952); type: in vivo, human
[4] = High-dose: 100 mg first dose/50 mg every 12 hours, n = 60
[5] = Low-dose: 20 mg first dose/10 mg every 12 hours, n = 33
[6] = Mid-dose: 60 mg first dose/30 mg every 12 hours, n = 62

Chain of human NaV 1.8 (Q9Y5Y9 126-1722 limits assumed): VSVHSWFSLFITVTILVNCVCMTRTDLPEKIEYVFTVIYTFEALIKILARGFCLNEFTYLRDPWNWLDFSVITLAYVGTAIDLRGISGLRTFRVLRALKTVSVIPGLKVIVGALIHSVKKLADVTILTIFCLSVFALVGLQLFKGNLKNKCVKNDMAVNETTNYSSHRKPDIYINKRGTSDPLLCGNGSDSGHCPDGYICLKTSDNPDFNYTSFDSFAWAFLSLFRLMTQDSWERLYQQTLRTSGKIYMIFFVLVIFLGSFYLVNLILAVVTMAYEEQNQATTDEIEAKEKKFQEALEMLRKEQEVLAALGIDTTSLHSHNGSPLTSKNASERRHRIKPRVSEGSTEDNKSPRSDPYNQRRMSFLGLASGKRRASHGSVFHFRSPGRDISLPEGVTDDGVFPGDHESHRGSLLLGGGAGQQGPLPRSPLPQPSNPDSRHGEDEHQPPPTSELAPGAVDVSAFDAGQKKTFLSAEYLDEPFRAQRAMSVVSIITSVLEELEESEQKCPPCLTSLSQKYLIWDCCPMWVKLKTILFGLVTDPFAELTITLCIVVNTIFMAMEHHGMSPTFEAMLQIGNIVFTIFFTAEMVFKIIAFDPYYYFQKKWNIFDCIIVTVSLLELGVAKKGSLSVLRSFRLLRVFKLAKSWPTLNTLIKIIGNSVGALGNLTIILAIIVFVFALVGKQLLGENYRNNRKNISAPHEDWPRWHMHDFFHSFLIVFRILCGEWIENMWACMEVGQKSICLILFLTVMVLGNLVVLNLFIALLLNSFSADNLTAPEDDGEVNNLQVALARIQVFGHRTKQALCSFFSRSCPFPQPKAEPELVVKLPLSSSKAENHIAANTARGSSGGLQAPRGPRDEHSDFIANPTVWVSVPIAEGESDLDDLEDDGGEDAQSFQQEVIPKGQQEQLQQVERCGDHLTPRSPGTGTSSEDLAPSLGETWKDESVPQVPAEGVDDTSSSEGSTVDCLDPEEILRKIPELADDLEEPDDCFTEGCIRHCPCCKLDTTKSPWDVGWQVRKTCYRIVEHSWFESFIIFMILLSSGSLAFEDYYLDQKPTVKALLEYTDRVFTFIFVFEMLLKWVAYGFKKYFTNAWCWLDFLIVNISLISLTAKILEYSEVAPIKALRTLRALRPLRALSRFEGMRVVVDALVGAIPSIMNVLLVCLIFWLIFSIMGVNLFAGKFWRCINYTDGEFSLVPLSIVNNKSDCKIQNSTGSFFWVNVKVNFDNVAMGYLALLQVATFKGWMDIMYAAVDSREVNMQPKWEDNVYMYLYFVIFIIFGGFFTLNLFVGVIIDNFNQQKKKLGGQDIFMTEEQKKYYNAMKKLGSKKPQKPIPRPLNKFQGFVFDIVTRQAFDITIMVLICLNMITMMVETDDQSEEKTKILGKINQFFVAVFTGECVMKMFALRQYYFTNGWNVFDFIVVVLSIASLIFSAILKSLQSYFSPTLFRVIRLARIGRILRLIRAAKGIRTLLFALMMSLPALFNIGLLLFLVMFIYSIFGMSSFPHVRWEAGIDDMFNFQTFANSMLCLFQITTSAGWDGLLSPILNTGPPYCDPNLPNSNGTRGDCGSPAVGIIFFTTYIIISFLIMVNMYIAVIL

- IC50 [2]: < 10 nM
Compound: COc1c([C@H]2[C@H](C(=O)Nc3ccnc(C(N)=O)c3)O[C@@](C)(C(F)(F)F)[C@H]2C)ccc(F)c1F (single isomer, unassigned) [Compound 1]
- Mean SPID48 [1, 4]: 137.8
- Mean SPID48 difference from placebo [1, 4]: 36.8
- Mean SPID48 [1, 5]: 112.9
- Mean SPID48 difference from placebo [1, 5]: 11.9
- Mean SPID48 [1, 6]: 86.9
- Mean SPID48 difference from placebo [1, 6]: −14.1
- Onset of action ([1]; bunionectomy study): rapid and was sustained through the duration of assessment
- SPID48 compared to placebo (primary endpoint), in words ([1]; high dose, recorded on NPRS): statistically significant improvement
- SPID48, in words [3]: statistically significant improvement

Reference: patent publication US20240285596A1, “SOLID DOSAGE FORMS AND DOSING REGIMENS COMPRISING (2R,3S,4S,5R)-4-[[3-(3,4-DIFLUORO-2-METHOXY-PHENYL)-4,5-DIMETHYL-5-(TRIFLUOROMETHYL) TETRAHYDROFURAN-2-CARBONYL]AMINO]PYRIDINE-2-CARBOXAMIDE” (VERTEX PHARMACEUTICALS INCORPORATED, priority 2021, published 2024)
